Results: patent US12054498B2, “Heteroaromatic macrocyclic ether chemotherapeutic agents” (Nuvalent, Inc., priority 2020, dated 2024)

Key:
[1] = biological target: T1, TRKA-wt (Homo sapiens, UniProt P04629); test: Biochemical kinase assay, TRKA-wt kinase domain; conditions: apparent inhibitory constant, Morrison equation; ATP 2 mM in substrate solution; read-out: TRKA-wt Ki^app
T1 construct: or TRKA-wt (1 nM, BPS Bio, 40280) kinase domains in buffer; purchased BPS Bio 40280
How it was run: (§1)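 Continuous fluorescence read (λ=485 nm, every 2 min, 120 min, 30° C). Substrate solution held 2 mM ATP and 26 μM AQT0101 (ROS1/ALK) or AQT0104 (TRKA). Kinase solution: ROS1-G2032R 0.5 nM, ROS1-wt 0.6 nM, TRKA 1 nM, ALK double mutant 3 nM. Initial linear rates fed a Morrison-equation fit giving Ki^app.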

[2] = biological target: T2, ALK-wt (Homo sapiens, UniProt Q9UM73); test: Biochemical kinase assay, ALK-wt kinase domain; conditions: apparent inhibitory constant, Morrison equation; ATP 2 mM in substrate solution; read-out: ALK-wt Ki^app
T2 construct: purchased Carna 08-518
How it was run: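 Compound in DMSO added first, then substrate solution (ATP 2 mM; AQT0101 or AQT0104, 26 μM; pH 7.5 HEPES, 10 mM MgCl2), then kinase solution with enzyme at 0.5–3 nM depending on construct. Kinetic read every 2 min for 120 min at 30° C; Ki^app by Morrison regression.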

[3] = biological target: T3, ROS1-G2032R (Homo sapiens, UniProt P08922, G2032R); test: Biochemical kinase assay, ROS1-G2032R kinase domain; conditions: apparent inhibitory constant, Morrison equation; ATP 2 mM in substrate solution; read-out: ROS1-G2032R Ki^app
T3 construct: purchased SignalChem R14-12BG
How it was run: (§2)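 Kinetic read: 485 nm, 2-min intervals, 120 min, 30 °C. Substrate mix — ATP 2 mM, AQT0101 26 μM, HEPES 50 mM pH 7.5, MgCl2 10 mM. Output: Ki^app, Morrison equation.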

[4] = biological target: T4, Ba/F3 cells TPM3-TRKA (Homo sapiens, UniProt P04629); test: Ba/F3 cell proliferation assay, TPM3-TRKA; format: cell-based; conditions: 72 hours, CellTiter-Glo, read-out: TPM3-NTRK1-wt IC50
T4 construct: host or cells: Ba/F3 (RIKEN), retroviral pMSCV-puro; the other entry of the earlier key: TPM3 (P06753, Tropomyosin alpha-3 chain)
How it was run: (§3)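 IC50 values come from four-parameter logistic regression of CellTiter-Glo luminescence after 72 h exposure to 3-fold serial dilutions. Cells are Ba/F3 transformed by retroviral fusion-kinase constructs, grown without IL-3 under puromycin, plated at 1,000 per well a day before dosing.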

[5] = system: TPM3-NTRK1-wt IC50 / primary target IC50 (e.g. CD74-ROS1-wt); test: TRKA selectivity in Ba/F3 cells (TRKA potency divided by primary target potency); format: cell-based; conditions: for TPM3-NTRK1-wt/CD74-ROS1-G2032R selectivity ratio: TRKA potency / CD74-ROS1-G2032R potency; for TPM3-NTRK1-wt/CD74-ROS1-wt selectivity ratio: TRKA potency / CD74-ROS1-wt potency; for TPM3-NTRK1-wt/EML4-ALK-L1196M-G1202R selectivity ratio: TRKA potency / EML4-ALK-L1196M-G1202R potency; for TPM3-NTRK1-wt/EML4-ALK-wt selectivity ratio: TRKA potency / EML4-ALK-wt potency
Method: TRKA selectivity was calculated by dividing a compound's TRKA potency by its primary target potency (e.g. TPM3-NTRK1-wt IC50/CD74-ROS1-wt IC50). Compound selectivity can be interpreted by binning ratio values: bin A for very high selectivity, ratio >30-fold; bin B for high selectivity, ratio >10-fold; bin C for moderate selectivity, ratio ≥1; and bin D for low selectivity, ratio <1. […] (nd=not determined).

[6] = biological target: T5, ROS1-wt (Homo sapiens, UniProt P08922); test: Biochemical kinase assay, ROS1-wt kinase domain; conditions: apparent inhibitory constant, Morrison equation; ATP 2 mM in substrate solution; read-out: ROS1-wt Ki^app
T5 construct: purchased Carna 08-163
How it was run: as §2

[7] = biological target: T6, Ba/F3 cells CD74-ROS1 wild-type (wt) (Homo sapiens, UniProt P08922); test: Ba/F3 cell proliferation assay, CD74-ROS1 wild-type; format: cell-based; conditions: 72 hours, CellTiter-Glo
T6 construct: fusion of the C-terminus of ROS1 with the N-terminus of various partner proteins; host or cells: Ba/F3 (RIKEN), retroviral pMSCV-puro; the other entry of the earlier key: CD74 (P04233, HLA class II histocompatibility antigen gamma chain)
How it was run: (§4)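 First, retrovirally infected Ba/F3 cells were made IL-3-independent and selected with puromycin (0.8 μg/mL). Next, cells were plated and rested one day. Then compounds in 3-fold dilutions were added for 72 hours before CellTiter-Glo readout.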

[8] = biological target: T7, Ba/F3 cells EML4-ALK wt (variant 1) (Homo sapiens, UniProt Q9UM73); test: Ba/F3 cell proliferation assay, EML4-ALK wt (variant 1); format: cell-based; conditions: 72 hours, CellTiter-Glo
T7 construct: echinoderm microtubule-associated protein-like 4 (EML4) gene and the ALK tyrosine kinase domain; host or cells: Ba/F3 (RIKEN), retroviral pMSCV-puro; the other entry of the earlier key: EML4 (Q9HC35, Echinoderm microtubule-associated protein-like 4)
How it was run: as §3

[9] = biological target: T8, Ba/F3 cells EML4-ALK L1196M/G1202R (variant 1) (Homo sapiens, UniProt Q9UM73, G1202R/L1196M); test: Ba/F3 cell proliferation assay, EML4-ALK L1196M/G1202R (variant 1); format: cell-based; conditions: 72 hours, CellTiter-Glo
T8 construct: echinoderm microtubule-associated protein-like 4 (EML4) gene and the ALK tyrosine kinase domain; host or cells: Ba/F3 (RIKEN), retroviral pMSCV-puro; the other entry of the earlier key: EML4 (Q9HC35, Echinoderm microtubule-associated protein-like 4)
How it was run: as §3

[10] = biological target: T9, ALK L1196M/G1202R (Homo sapiens, UniProt Q9UM73, G1202R/L1196M); test: Biochemical kinase assay, ALK L1196M/G1202R kinase domain; conditions: apparent inhibitory constant, Morrison equation; ATP 2 mM in substrate solution; read-out: ALK-L1196M-G1202R Ki^app
T9 construct: purchased SignalChem A19-12NG
How it was run: as §1

[11] = biological target: T10, Ba/F3 cells CD74-ROS1 G2032R (Homo sapiens, UniProt P08922, G2032R); test: Ba/F3 cell proliferation assay, CD74-ROS1 G2032R; format: cell-based; conditions: 72 hours, CellTiter-Glo
T10 construct: fusion of the C-terminus of ROS1 with the N-terminus of various partner proteins; host or cells: Ba/F3 (RIKEN), retroviral pMSCV-puro; the other entry of the earlier key: CD74 (P04233, HLA class II histocompatibility antigen gamma chain)
How it was run: as §4

T9 sequence (Q9UM73 1116-1392 L1196M/G1202R limits assumed): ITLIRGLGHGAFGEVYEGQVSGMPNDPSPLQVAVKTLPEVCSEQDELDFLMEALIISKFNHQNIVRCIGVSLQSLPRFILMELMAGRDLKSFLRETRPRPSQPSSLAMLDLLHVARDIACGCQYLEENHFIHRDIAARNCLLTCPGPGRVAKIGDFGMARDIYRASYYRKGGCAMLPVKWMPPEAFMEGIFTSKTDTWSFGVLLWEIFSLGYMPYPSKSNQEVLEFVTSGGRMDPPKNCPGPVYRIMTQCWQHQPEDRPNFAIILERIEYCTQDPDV
T3 sequence (P08922 1945-2222 G2032R limits assumed): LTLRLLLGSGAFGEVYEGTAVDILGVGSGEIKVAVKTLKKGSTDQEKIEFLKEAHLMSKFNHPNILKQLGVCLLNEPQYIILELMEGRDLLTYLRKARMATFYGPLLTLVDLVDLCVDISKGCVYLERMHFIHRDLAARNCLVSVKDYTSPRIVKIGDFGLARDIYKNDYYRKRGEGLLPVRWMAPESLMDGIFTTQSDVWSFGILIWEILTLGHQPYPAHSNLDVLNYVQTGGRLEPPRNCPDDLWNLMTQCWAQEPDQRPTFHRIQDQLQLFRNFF
T8 sequence (Q9UM73 with tags, fused parts or gaps L1196M/G1202R): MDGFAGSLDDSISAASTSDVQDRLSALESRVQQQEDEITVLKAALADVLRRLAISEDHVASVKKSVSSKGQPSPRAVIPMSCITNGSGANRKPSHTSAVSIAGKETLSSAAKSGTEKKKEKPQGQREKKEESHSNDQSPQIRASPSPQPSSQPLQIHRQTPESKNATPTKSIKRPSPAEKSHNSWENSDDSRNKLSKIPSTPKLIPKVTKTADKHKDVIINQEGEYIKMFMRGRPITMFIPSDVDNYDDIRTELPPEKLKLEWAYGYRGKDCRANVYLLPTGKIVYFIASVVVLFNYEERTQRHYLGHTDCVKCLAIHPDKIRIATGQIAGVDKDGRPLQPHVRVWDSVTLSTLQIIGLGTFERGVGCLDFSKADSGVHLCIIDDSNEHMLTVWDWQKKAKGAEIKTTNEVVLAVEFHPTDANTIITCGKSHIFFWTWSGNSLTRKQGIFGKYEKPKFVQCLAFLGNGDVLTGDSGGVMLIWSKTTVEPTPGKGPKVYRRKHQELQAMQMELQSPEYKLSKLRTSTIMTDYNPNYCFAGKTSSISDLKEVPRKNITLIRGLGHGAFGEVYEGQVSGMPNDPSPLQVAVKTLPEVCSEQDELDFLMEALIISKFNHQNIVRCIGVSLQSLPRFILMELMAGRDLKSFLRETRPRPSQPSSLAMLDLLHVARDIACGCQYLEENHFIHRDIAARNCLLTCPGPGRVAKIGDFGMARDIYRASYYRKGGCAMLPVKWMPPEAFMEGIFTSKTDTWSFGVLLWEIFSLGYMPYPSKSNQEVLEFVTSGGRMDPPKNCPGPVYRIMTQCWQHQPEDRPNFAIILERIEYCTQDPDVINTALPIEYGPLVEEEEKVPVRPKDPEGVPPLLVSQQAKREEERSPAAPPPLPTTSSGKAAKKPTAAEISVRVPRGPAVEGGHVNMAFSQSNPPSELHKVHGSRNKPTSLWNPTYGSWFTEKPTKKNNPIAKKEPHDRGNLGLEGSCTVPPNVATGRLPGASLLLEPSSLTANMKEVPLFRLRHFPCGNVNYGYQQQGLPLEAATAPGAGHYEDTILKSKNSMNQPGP
T10 sequence (P08922 1883-2347 G2032R limits assumed): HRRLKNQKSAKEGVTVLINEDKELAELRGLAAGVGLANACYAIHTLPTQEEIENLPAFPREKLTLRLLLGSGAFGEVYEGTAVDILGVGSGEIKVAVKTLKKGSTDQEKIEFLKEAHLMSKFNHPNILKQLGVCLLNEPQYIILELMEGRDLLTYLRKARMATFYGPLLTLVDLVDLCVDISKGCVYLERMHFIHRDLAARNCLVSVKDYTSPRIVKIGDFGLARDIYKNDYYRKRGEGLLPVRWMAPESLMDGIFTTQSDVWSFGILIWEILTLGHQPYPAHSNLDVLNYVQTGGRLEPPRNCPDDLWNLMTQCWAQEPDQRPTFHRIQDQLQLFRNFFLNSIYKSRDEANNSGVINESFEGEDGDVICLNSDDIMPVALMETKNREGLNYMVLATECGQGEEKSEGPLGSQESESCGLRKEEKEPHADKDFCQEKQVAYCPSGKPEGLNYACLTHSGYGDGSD
T5 sequence (P08922 1945-2222 limits assumed): as the sequence (P08922 1945-2222 G2032R limits assumed) above, with R88G counted along it
T1 sequence (P04629 510-781 limits assumed): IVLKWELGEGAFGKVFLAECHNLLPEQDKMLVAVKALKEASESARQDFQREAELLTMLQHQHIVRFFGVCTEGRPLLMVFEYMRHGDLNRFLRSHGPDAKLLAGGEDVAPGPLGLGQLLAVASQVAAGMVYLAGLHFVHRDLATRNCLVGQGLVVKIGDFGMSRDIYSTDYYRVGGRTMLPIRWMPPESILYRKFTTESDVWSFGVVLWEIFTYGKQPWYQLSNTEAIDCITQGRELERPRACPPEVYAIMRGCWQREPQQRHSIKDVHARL
T4 sequence (P04629 510-796 limits assumed): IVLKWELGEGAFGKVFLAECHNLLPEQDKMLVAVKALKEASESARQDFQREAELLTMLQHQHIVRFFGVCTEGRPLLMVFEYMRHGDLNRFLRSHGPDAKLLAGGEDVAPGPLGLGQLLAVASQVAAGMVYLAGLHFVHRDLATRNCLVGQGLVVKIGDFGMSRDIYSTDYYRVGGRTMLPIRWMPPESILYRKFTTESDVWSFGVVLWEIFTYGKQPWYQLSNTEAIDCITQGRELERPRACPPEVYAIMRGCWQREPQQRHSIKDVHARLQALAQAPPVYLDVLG
T2 sequence (Q9UM73 1116-1392 limits assumed): as the sequence (Q9UM73 1116-1392 L1196M/G1202R limits assumed) above, with M81L, R87G counted along it
T6 sequence (P08922 1883-2347 limits assumed): as the sequence (P08922 1883-2347 G2032R limits assumed) above, with R150G counted along it
T7 sequence (Q9UM73 with tags, fused parts or gaps): as the sequence (Q9UM73 with tags, fused parts or gaps L1196M/G1202R) above, with M635L, R641G counted along it

Structure (SMILES)	Ki [1]	Ki [2]	Ki [3]	IC50 [4]	Ki [6]	IC50 [7]	IC50 [8]	IC50 [9]	Ki [10]	IC50 [11]	TPM3-NTRK1-wt/CD74-ROS1-G2032R selectivity ratio [5]	TPM3-NTRK1-wt/CD74-ROS1-wt selectivity ratio [5]	TPM3-NTRK1-wt/EML4-ALK-L1196M-G1202R selectivity ratio [5]	TPM3-NTRK1-wt/EML4-ALK-wt selectivity ratio [5]
C[C@H]1Oc2cc(cnc2N)-c2c(c(Cl)nn2CC(F)F)Cc2nn(C)nc2-c2ccc(F)cc21 [Example 60, (19R)-5-chloro-3-(2,2difluoroethyl)-16-fluoro-10,19-dimethyl-20-oxa-3,4,9,10,11,23-hexaazapentacyclo[19.3.1.0^2,^6.0^8,^12.0^13,^18]pentacosa-1(24),2(6),4,8,11,13,15,17,21(25),22-decaen-22-amine]	> 0.5 µM	0.05 to 0.5 µM	0.05 to 0.5 µM	> 0.5 µM	< 0.05 µM	0.0001 to 0.05 µM	0.05 to 0.5 µM	> 0.5 µM	0.05 to 0.5 µM	0.0001 to 0.05 µM	A (bin A for very high selectivity, ratio >30-fold)	A (bin A for very high selectivity, ratio >30-fold)	B (bin B for high selectivity, ratio >10-fold)	A (bin A for very high selectivity, ratio >30-fold)
C[C@H]1Oc2cc(cnc2N)-c2c(CC3CC3)noc2Cc2nn(C)nc2-c2ccc(F)cc21 [Example 63, (19R)-3-(cyclopropylmethyl)-16-fluoro-10,19-dimethyl-5,20-dioxa-4,9,1 0,11,23-pentaazapentacyclo [19.3.1.0^2,^6.0^8,^12.0^13,^18]pentacosa-1(24),2(6),3,8,11,13,15,17,21(25),22-decaen-22-amine]	> 0.5 µM	< 0.05 µM	< 0.05 µM	0.05 to 0.5 µM	< 0.05 µM	0.0001 to 0.05 µM	0.0001 to 0.05 µM	0.0001 to 0.05 µM	< 0.05 µM	0.0001 to 0.05 µM	A (bin A for very high selectivity, ratio >30-fold)	A (bin A for very high selectivity, ratio >30-fold)	B (bin B for high selectivity, ratio >10-fold)	A (bin A for very high selectivity, ratio >30-fold)
Cc1nn(CC2CC2)c2c1Cn1ncnc1-c1ccc(F)cc1[C@@H](C)Oc1cc-2cnc1N [Example 64, (19R)-3-(cyclopropylmethyl)-16-fluoro-5,19-dimethyl-20-oxa-3,4,8,9,11,23-hexaazapentacyclo[19.3.1.0^2,^6.0^8,^12.0^13,^18]pentacosa-1(24),2(6),4,9,11,13,15,17,21(25),22-decaen-22-amine]	> 0.5 µM	< 0.05 µM	< 0.05 µM	> 0.5 µM	< 0.05 µM	0.0001 to 0.05 µM	0.0001 to 0.05 µM	0.05 to 0.5 µM	< 0.05 µM	0.0001 to 0.05 µM	A (bin A for very high selectivity, ratio >30-fold)	A (bin A for very high selectivity, ratio >30-fold)	A (bin A for very high selectivity, ratio >30-fold)	A (bin A for very high selectivity, ratio >30-fold)

Continued, in another order:

Ki [1]	Ki [2]	Ki [3]	IC50 [4]	Ki [6]	IC50 [7]	IC50 [8]	IC50 [9]	Ki [10]	IC50 [11]	Structure (SMILES)	TPM3-NTRK1-wt/CD74-ROS1-G2032R selectivity ratio [5]	TPM3-NTRK1-wt/CD74-ROS1-wt selectivity ratio [5]	TPM3-NTRK1-wt/EML4-ALK-L1196M-G1202R selectivity ratio [5]	TPM3-NTRK1-wt/EML4-ALK-wt selectivity ratio [5]
> 0.5 µM	< 0.05 µM	< 0.05 µM	> 0.5 µM	< 0.05 µM	0.0001 to 0.05 µM	0.0001 to 0.05 µM	0.0001 to 0.05 µM	< 0.05 µM	0.0001 to 0.05 µM	C[C@H]1Oc2cc(cnc2N)-c2c(cnn2CC2CC2)Cc2nn(C)cc2-c2ccc(F)cc21 [Example 61, (19R)-3-(cyclopropylmetbyl)-16-fluoro-10,19-dimethyl-20-oxa-3,4,9,10,23-pentaazapentacyclo[19.3.1.0^2,^6.0^8,^12.0^13,^18]pentacosa-1(24),2(6),4,8,11,13,15,17,21(25),22-decaen-22-amine]	A (bin A for very high selectivity, ratio >30-fold)	A (bin A for very high selectivity, ratio >30-fold)	A (bin A for very high selectivity, ratio >30-fold)	A (bin A for very high selectivity, ratio >30-fold)
0.05 to 0.5 µM	< 0.05 µM	< 0.05 µM	0.05 to 0.5 µM	< 0.05 µM	0.0001 to 0.05 µM	0.0001 to 0.05 µM	0.0001 to 0.05 µM	< 0.05 µM	0.0001 to 0.05 µM	CCn1ncc2c1-c1cnc(N)c(c1)O[C@H](C)c1cc(F)ccc1-c1nsnc1C2 [Example 62, (19R)-3-ethyl-16-fluoro-19-methyl-20-oxa-10-thia-3,4,9,11,23-pentaazapentacyclo[19.3.1.0^2,^6.0^8,^12.0^13,^18]pentacosa-1(24),2(6),4,8,11,13,15,17,21(25),22-decaen-22-amine]	A (bin A for very high selectivity, ratio >30-fold)	A (bin A for very high selectivity, ratio >30-fold)	C (bin C for moderate selectivity, ratio ≥1)	A (bin A for very high selectivity, ratio >30-fold)
> 0.5 µM	< 0.05 µM	< 0.05 µM	> 0.5 µM	< 0.05 µM	0.0001 to 0.05 µM	0.0001 to 0.05 µM	0.0001 to 0.05 µM	< 0.05 µM	0.0001 to 0.05 µM	Cc1nn(CC2CC2)c2c1Cc1nn(C)nc1-c1ccc(F)cc1[C@@H](C)Oc1cc-2cnc1N [Example 65]	A (bin A for very high selectivity, ratio >30-fold)	A (bin A for very high selectivity, ratio >30-fold)	A (bin A for very high selectivity, ratio >30-fold)	A (bin A for very high selectivity, ratio >30-fold)
0.05 to 0.5 µM	< 0.05 µM	< 0.05 µM	0.05 to 0.5 µM	< 0.05 µM	0.0001 to 0.05 µM	0.0001 to 0.05 µM	0.0001 to 0.05 µM	< 0.05 µM	0.0001 to 0.05 µM	CCn1ncc2c1-c1cnc(N)c(c1)O[C@H](C)c1cc(F)ccc1-c1oc(C)nc1C2 [Example 66, (19R)-3-ethyl-16-fluoro-10,19-dimethyl-11,20-dioxa-3,4,9,23-tetraazapentacyclo[19.3.1,0^2,^6.0^8,^12.0^13,^18]pentacosa-1(24),2(6),4,8(12),9,13,15,17,21(25),22-decaen-22-amine]	A (bin A for very high selectivity, ratio >30-fold)	A (bin A for very high selectivity, ratio >30-fold)	C (bin C for moderate selectivity, ratio ≥1)	B (bin B for high selectivity, ratio >10-fold)
